In article PMC10247784, “Physiological activation of human and mouse bitter taste receptors by bile acids” (Communications Biology, 2023):

Molecular target: T1, mouse Tas2r108 (Mus musculus, UniProt Q9JKT3)
T1 construct: expressed in transfected cells; host or cells: HEK293T-Gα16gust44
T1 sequence (Q9JKT3 1-297): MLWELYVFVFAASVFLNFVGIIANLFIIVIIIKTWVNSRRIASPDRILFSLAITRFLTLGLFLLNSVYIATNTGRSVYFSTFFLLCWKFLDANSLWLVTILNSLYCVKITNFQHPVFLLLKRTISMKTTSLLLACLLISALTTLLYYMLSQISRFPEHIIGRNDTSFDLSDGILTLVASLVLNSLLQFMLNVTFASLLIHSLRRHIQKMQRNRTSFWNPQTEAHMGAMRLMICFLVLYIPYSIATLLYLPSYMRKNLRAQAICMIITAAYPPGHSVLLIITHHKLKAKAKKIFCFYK
Experiment: Calcium imaging assay (FLIPR), HEK293T-Gα16gust44 cells transfected with mouse Tas2r108
Assay type: cell-based
Settings: screening
How it was run: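 Calcium responses via FLIPR in receptor-transfected HEK293T-Gα16gust44 cells (Fluo-4-AM, 2.5 mM probenecid), after mock-signal subtraction and normalization to baseline and buffer (ΔF/F). Threshold concentration is the lowest dose differing from mock cells at p < 0.01 (Student's t-test), from three biological replicates in duplicate.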

Receptor response Tas2r108: does not respond
Structure (SMILES): C[C@H](CCC(=O)O)[C@H]1CC[C@H]2[C@@H]3[C@@H](O)C[C@@H]4C[C@H](O)CC[C@]4(C)[C@H]3CC[C@]12C [Ursodeoxycholic Acid, ursodeoxycholic acid]
